US8486464B2, “Herbal composition for angina pectoris, method to prepare same and uses thereof” (Tasly Pharmaceutical Group Co. Ltd., priority 2000, dated 2013)

Legend:
non-symptomatic M-IR = assay: Non-symptomatic M-IR, DSP vs Nifedipine; type: in vivo, human; conditions: for Efficacy (Number) / Obvious Efficacy (Number): n = 52
Source text: 1. Clinical sample. 52 patients were in the treatment group, which included 39 patients with coronary heart disease, and 4 patients with M-IR, and 9 patients with positive results on the exercise test. There were 38 males and 14 females. 52 patients were in the control group, which included 43 patients with coronary heart disease, 6 patients with M-IR, and 3 patients with positive results on the exercise test. There were 34 males and 18 females (Both groups followed the WHO M-IR-Related Heart Disease and Standard established in 1979).
2. Method of treatment. DSP was given to the treatment group, 10 tablets/medication, 3 times/day. […] Both medications lasted for 4 weeks, and all medications related to the treatment of M-IR were stopped.
3. Result standard. Efficient: Change of ECG ST-T was close to normal; Better: Decreased section ST rose 0.5 mm or more, transverse wave T changed to vertical ones, inverted wave changed 25% or more, conducting resistance was improved; Failure: There was no difference in ECGs before and after treatment.

[1] = test system: angina caused by coronary heart disease; assay: Senior group angina, DSP vs Nifedipine
Procedure: • 1.1 Subjects. […] Medications were taken for 30 days. Patients in both groups used Yongbaoling spray under their tongues during acute onset of symptoms. […] Onset frequency, duration, number of times Yongbaoling was sprayed each day, 12-lead ECG, blood pressure, heartbeat, normal blood urea, liver and kidneys function, and lipoproteins in blood and blood viscosity both before and after treatment. • 1.4 Statistical analysis. The results were measured by t statistic testing, calculated by x^2 statistic testing. • 2. Confirmation of results. Onset frequency and duration with a decrease of 80% or more was regarded as obvious efficacy. A decrease of 50% or more was regarded as efficacy. A decrease of 50% or less was regarded as a failure. Changes in NST and ΣST before and after treatment were used to observe ECG improvement. NST represented the low-pressure 12-lead numbers in section ST; ΣST represented the sum of all low pressure numbers in section ST of 12-lead. Results

[2] = test system: coronary heart disease and angina; assay: Clinical summary: coronary heart disease and angina (Table 1-1); type: in vivo, human; conditions: Affiliated Hospital Anhui College of TCM, 46 cases
Procedure: After DSP came onto the market in China, a large-scale clinical research project was conducted in China. Although different prescriptions were used in different research projects, all conclusions are written according to “Method of DSP clinic study.” All clinical and experimental markers were standardized. A simplified summary of the results is shown below in Table 1-1.

[3] = clinical results after 30 days, cases (%)

## COC(=O)C1=C(C)NC(C)=C(C(=O)OC)C1c1ccccc1[N+](=O)[O-] [Nifedipine]
non-symptomatic M-IR; 1st week
  Efficacy (%): 25.0%
  Efficacy (Number): 5
  Obvious Efficacy (Number): 8
non-symptomatic M-IR; 2nd week
  Efficacy (%): 30.8%
  Efficacy (Number): 6
  Obvious Efficacy (Number): 10
non-symptomatic M-IR; 3rd week
  Efficacy (%): 34.6%
  Efficacy (Number): 7
  Obvious Efficacy (Number): 11
non-symptomatic M-IR; 4th week
  Efficacy (%): 38.5%
  Efficacy (Number): 8
  Obvious Efficacy (Number): 12
[1]; 20 patients, 30 days
  Side-effects: felt pain: 3 patients
  Side-effects: slow heartbeat: 1 patients
  Side-effects: swollen ankles: 2 patients
[1]; after treatment
  NST: 3.90 ± 1.13
  Number of Yongbaoling sprays per day: 2.2 ± 0.8
[1]; before treatment
  NST: 4.20 ± 1.25
  Number of Yongbaoling sprays per day: 3.21 ± 1.1
[1]; clinical results after 30 days
  Total efficacy, %: 60%
[1]; [3]
  Efficacy: 4 (20.00) %
  Failure: 8 (40.00) %
  Obvious Efficacy: 8 (40.00) %
[2]
  Clinical efficacy %: Nifedipine(32; 75%;
  ECG-Efficacy %: 43.8%)
